According to PubChem BioAssay (NCI):
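Tested at 5 concentrations; 48 h exposure; 96-well plates; endpoints linearly interpolated, else capped at highest concentration. GI50 = concentration required for 50% inhibition of growth. TGI marks complete inhibition of growth.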

Experiments:
Assay in all cases: NCI tumour cell line growth inhibition, 48 h
SF-268 CNS = test system: SF-268 CNS
HCT-116 colon = test system: HCT-116 colon
TK-10 renal = test system: TK-10 renal
NCI-H460 lung = test system: NCI-H460 lung
HCC-2998 colon = test system: HCC-2998 colon
NCI-H23 lung = test system: NCI-H23 lung
OVCAR-5 ovarian = test system: OVCAR-5 ovarian
LXFL 529 NSCLC = test system: LXFL 529 NSCLC
K-562 leukemia = test system: K-562 leukemia
HOP-92 NSCLC = test system: HOP-92 NSCLC
SK-OV-3 ovarian = test system: SK-OV-3 ovarian
UACC-257 melanoma = test system: UACC-257 melanoma
SN12C renal = test system: SN12C renal
HT29 colon = test system: HT29 colon
RPMI-8226 leukemia = test system: RPMI-8226 leukemia
UACC-62 melanoma = test system: UACC-62 melanoma
U251 CNS = test system: U251 CNS
CCRF-CEM leukemia = test system: CCRF-CEM leukemia
LOX IMVI melanoma = test system: LOX IMVI melanoma
COLO 205 colon = test system: COLO 205 colon
OVCAR-8 ovarian = test system: OVCAR-8 ovarian
SK-MEL-28 melanoma = test system: SK-MEL-28 melanoma
HCT-15 colon = test system: HCT-15 colon
SF-295 CNS = test system: SF-295 CNS
SK-MEL-5 melanoma = test system: SK-MEL-5 melanoma
DLD-1 colon = test system: DLD-1 colon
OVCAR-3 ovarian = test system: OVCAR-3 ovarian
IGROV1 ovarian = test system: IGROV1 ovarian
UO-31 renal = test system: UO-31 renal
NCI-H226 lung = test system: NCI-H226 lung
MOLT-4 leukemia = test system: MOLT-4 leukemia
M19-MEL melanoma = test system: M19-MEL melanoma
CAKI-1 renal = test system: CAKI-1 renal
SF-539 CNS = test system: SF-539 CNS
RXF 393 renal = test system: RXF 393 renal
MALME-3M melanoma = test system: MALME-3M melanoma
HOP-62 NSCLC = test system: HOP-62 NSCLC
SNB-19 CNS = test system: SNB-19 CNS
KM12 colon = test system: KM12 colon
A549 NSCLC = test system: A549 NSCLC
A498 renal = test system: A498 renal
KM20L2 colon = test system: KM20L2 colon
HL-60(TB) leukemia = test system: HL-60(TB) leukemia
786-0 renal = test system: 786-0 renal
M14 melanoma = test system: M14 melanoma
SW-620 colon = test system: SW-620 colon
NCI-H522 lung = test system: NCI-H522 lung
ACHN renal = test system: ACHN renal
EKVX NSCLC = test system: EKVX NSCLC
OVCAR-4 ovarian = test system: OVCAR-4 ovarian
SK-MEL-2 melanoma = test system: SK-MEL-2 melanoma
SNB-75 CNS = test system: SNB-75 CNS
DMS 273 small cell lung = test system: DMS 273 small cell lung
DMS 114 small cell lung = test system: DMS 114 small cell lung

CC(=O)[CH-]C(=O)c1ccccc1.CC(=O)[CH-]C(=O)c1ccccc1.CCN(CC)CC[O-].CCN(CC)CC[O-].Cl.[Hf+4]
GI50 (SF-268 CNS): > 100 µM | TGI (SF-268 CNS): > 100 µM | GI50 (HCT-116 colon): > 100 µM | TGI (HCT-116 colon): > 100 µM | GI50 (TK-10 renal): > 100 µM | TGI (TK-10 renal): > 100 µM | GI50 (NCI-H460 lung): 36.4 µM | TGI (NCI-H460 lung): > 100 µM | GI50 (HCC-2998 colon): > 100 µM | TGI (HCC-2998 colon): > 100 µM | GI50 (NCI-H23 lung): 19.7 µM | TGI (NCI-H23 lung): > 100 µM | GI50 (OVCAR-5 ovarian): > 100 µM | TGI (OVCAR-5 ovarian): > 100 µM | GI50 (LXFL 529 NSCLC): > 100 µM | TGI (LXFL 529 NSCLC): > 100 µM | GI50 (K-562 leukemia): > 100 µM | TGI (K-562 leukemia): > 100 µM | GI50 (HOP-92 NSCLC): 58.9 µM | TGI (HOP-92 NSCLC): > 100 µM | GI50 (SK-OV-3 ovarian): > 100 µM | TGI (SK-OV-3 ovarian): > 100 µM | GI50 (UACC-257 melanoma): > 100 µM | TGI (UACC-257 melanoma): > 100 µM | GI50 (SN12C renal): > 100 µM | TGI (SN12C renal): > 100 µM | GI50 (HT29 colon): > 100 µM | TGI (HT29 colon): > 100 µM | GI50 (RPMI-8226 leukemia): > 100 µM | TGI (RPMI-8226 leukemia): > 100 µM | GI50 (UACC-62 melanoma): > 100 µM | TGI (UACC-62 melanoma): > 100 µM | GI50 (U251 CNS): > 100 µM | TGI (U251 CNS): > 100 µM | GI50 (CCRF-CEM leukemia): 81.6 µM | TGI (CCRF-CEM leukemia): > 100 µM | GI50 (LOX IMVI melanoma): 72.9 µM | TGI (LOX IMVI melanoma): > 100 µM | GI50 (COLO 205 colon): > 100 µM | TGI (COLO 205 colon): > 100 µM | GI50 (OVCAR-8 ovarian): > 100 µM | TGI (OVCAR-8 ovarian): > 100 µM | GI50 (SK-MEL-28 melanoma): > 100 µM | TGI (SK-MEL-28 melanoma): > 100 µM | GI50 (HCT-15 colon): > 100 µM | TGI (HCT-15 colon): > 100 µM | GI50 (SF-295 CNS): 73.2 µM | TGI (SF-295 CNS): > 100 µM | GI50 (SK-MEL-5 melanoma): > 100 µM | TGI (SK-MEL-5 melanoma): > 100 µM | GI50 (DLD-1 colon): > 100 µM | TGI (DLD-1 colon): > 100 µM | GI50 (OVCAR-3 ovarian): > 100 µM | TGI (OVCAR-3 ovarian): > 100 µM | GI50 (IGROV1 ovarian): > 100 µM | TGI (IGROV1 ovarian): > 100 µM | GI50 (UO-31 renal): > 100 µM | TGI (UO-31 renal): > 100 µM | GI50 (NCI-H226 lung): 66.1 µM | TGI (NCI-H226 lung): > 100 µM | GI50 (MOLT-4 leukemia): 65 µM | TGI (MOLT-4 leukemia): > 100 µM | GI50 (M19-MEL melanoma): > 100 µM | TGI (M19-MEL melanoma): > 100 µM | GI50 (CAKI-1 renal): > 100 µM | TGI (CAKI-1 renal): > 100 µM | GI50 (SF-539 CNS): > 100 µM | TGI (SF-539 CNS): > 100 µM | GI50 (RXF 393 renal): 29.7 µM | TGI (RXF 393 renal): > 100 µM | GI50 (MALME-3M melanoma): > 100 µM | TGI (MALME-3M melanoma): > 100 µM | GI50 (HOP-62 NSCLC): > 100 µM | TGI (HOP-62 NSCLC): > 100 µM | GI50 (SNB-19 CNS): > 100 µM | TGI (SNB-19 CNS): > 100 µM | GI50 (KM12 colon): > 100 µM | TGI (KM12 colon): > 100 µM | GI50 (A549 NSCLC): > 100 µM | TGI (A549 NSCLC): > 100 µM | GI50 (A498 renal): 32.2 µM | TGI (A498 renal): > 100 µM | GI50 (KM20L2 colon): > 100 µM | TGI (KM20L2 colon): > 100 µM | GI50 (HL-60(TB) leukemia): > 100 µM | TGI (HL-60(TB) leukemia): > 100 µM | GI50 (786-0 renal): 88.8 µM | TGI (786-0 renal): > 100 µM | GI50 (M14 melanoma): 92 µM | TGI (M14 melanoma): > 100 µM | GI50 (SW-620 colon): > 100 µM | TGI (SW-620 colon): > 100 µM | GI50 (NCI-H522 lung): 52.5 µM | TGI (NCI-H522 lung): > 100 µM | GI50 (ACHN renal): 44.6 µM | TGI (ACHN renal): > 100 µM | GI50 (EKVX NSCLC): 93.8 µM | TGI (EKVX NSCLC): > 100 µM | GI50 (OVCAR-4 ovarian): > 100 µM | TGI (OVCAR-4 ovarian): > 100 µM | GI50 (SK-MEL-2 melanoma): > 100 µM | TGI (SK-MEL-2 melanoma): > 100 µM

CC(C)N(C(=O)C12C3C4C1C1C2C3C41C(=O)O)C(C)C (configuration not stated)
TGI (SF-268 CNS): > 100 µM | TGI (HCT-116 colon): > 100 µM | TGI (TK-10 renal): > 100 µM | TGI (SNB-75 CNS): > 100 µM | TGI (NCI-H460 lung): > 100 µM | TGI (HCC-2998 colon): > 100 µM | TGI (NCI-H23 lung): > 100 µM | TGI (OVCAR-5 ovarian): > 100 µM | TGI (LXFL 529 NSCLC): > 100 µM | TGI (K-562 leukemia): > 100 µM | TGI (SK-OV-3 ovarian): > 100 µM | TGI (UACC-257 melanoma): > 100 µM | TGI (SN12C renal): > 100 µM | TGI (HT29 colon): > 100 µM | TGI (RPMI-8226 leukemia): > 100 µM | TGI (UACC-62 melanoma): > 100 µM | TGI (CCRF-CEM leukemia): > 100 µM | TGI (DMS 273 small cell lung): > 100 µM | TGI (LOX IMVI melanoma): > 100 µM | TGI (COLO 205 colon): > 100 µM | TGI (OVCAR-8 ovarian): > 100 µM | TGI (SK-MEL-28 melanoma): > 100 µM | TGI (HCT-15 colon): > 100 µM | TGI (SF-295 CNS): > 100 µM | TGI (SK-MEL-5 melanoma): > 100 µM | TGI (DLD-1 colon): > 100 µM | TGI (OVCAR-3 ovarian): > 100 µM | TGI (IGROV1 ovarian): > 100 µM | TGI (UO-31 renal): > 100 µM | TGI (NCI-H226 lung): > 100 µM | TGI (MOLT-4 leukemia): > 100 µM | TGI (CAKI-1 renal): > 100 µM | TGI (SF-539 CNS): > 100 µM | TGI (MALME-3M melanoma): > 100 µM | TGI (HOP-62 NSCLC): > 100 µM | TGI (SNB-19 CNS): > 100 µM | TGI (KM12 colon): > 100 µM | TGI (A549 NSCLC): > 100 µM | TGI (DMS 114 small cell lung): > 100 µM | TGI (A498 renal): > 100 µM | TGI (KM20L2 colon): > 100 µM | TGI (HL-60(TB) leukemia): > 100 µM | TGI (786-0 renal): > 100 µM | TGI (M14 melanoma): > 100 µM | TGI (SW-620 colon): > 100 µM | TGI (NCI-H522 lung): > 100 µM | TGI (ACHN renal): > 100 µM | TGI (EKVX NSCLC): > 100 µM | TGI (OVCAR-4 ovarian): > 100 µM | TGI (SK-MEL-2 melanoma): > 100 µM
